Assay results as given in patent US7135492B2, “1,3-disubstituted-2- thioxo-imidazolidine-4,5-dione derivatives useful in the treatment of atherosclerosis” (Wyeth, priority 2001, dated 2006).

Experiments:
[1] = tested on: blood serum HDL cholesterol; assay: Determination of serum HDL cholesterol in cholesterol/cholic acid-fed rats; format: in vivo; details: Rattus norvegicus, feed or water, 192 h; male Sprague-Dawley rats, diet supplemented with 0.25% cholic acid and 1.0% cholesterol; 100 mg/kg mixed in diet; eight days; serum HDL-C by FPLC; read-out: HDL Cholesterol Level Increase (%)
Description: The ability of the compounds of this invention to increase blood serum HDL levels was established by the following standard experimental procedure for determination of HDL cholesterol:
Male Sprague-Dawley rats weighing 200–225 g were housed two per cage and fed Purina Rodent Chow Special Mix 5001-S supplemented with 0.25% cholic acid and 1.0% cholesterol and water ad libitum for 8 days. Each test substance was administered to a group of six rats fed the same diet with the test diet mixed in as 0.005–0.1% of the total diet. Body weight and food consumption were recorded prior to diet administration and at termination. Typical doses of the test substances are 5–100 mg/kg/day.
At termination, blood was collected from anesthetized rats and the serum was separated by centrifugation. Total serum cholesterol was assayed using the Sigma Diagnostics enzymatic kit for the determination of cholesterol, Procedure No. 352, modified for use with ninety-six well microtiter plates. After reconstitution with water the reagent contained 300 U/I cholesterol oxidase, 100 U/I cholesterol esterase, 1000 U/I horseradish peroxidase, 0.3 mmoles/l 4-aminoantipyrine and 30.0 mmoles/l p-hydroxybenzenesulfonate in a pH 6.5 buffer. In the reaction, cholesterol was oxidized to produce hydrogen peroxide which is used to form a quinoneimine dye. The concentration of dye formed was measured spectrophotometrically by absorbance at 490 nm after incubation at 25° C. for 30 minutes. The concentration of cholesterol was determined for each serum sample relative to a commercial standard from Sigma.
HDL cholesterol concentrations in serum were determined by separation of lipoprotein classes by fast protein liquid chromatography (FPLC) by a modification of the method of Kieft et al., J. Lipid Res., 32 (1991) 859–866. 25 ul of serum was injected onto Superose 12 and Superose 6 (Pharmacia), in series, with a column buffer of 0.05 M Tris (2-amino-2-hydroxymethyl-1,3-propanediol) and 0.15 M sodium chloride at a flow rate of 0.5 ml/min. The eluted sample was mixed on line with Boehringer-Mannheim cholesterol reagent pumped at 0.2 ml/min. The combined eluents were mixed and incubated on line through a knitted coil (Applied Biosciences) maintained at a temperature of 45 C. The eluent was monitored by measuring absorbance at 490 nm and gave a continuous absorbance signal proportional to the cholesterol concentration. The relative concentration of each lipoprotein class was calculated as the percent of total absorbance. HDL cholesterol concentration, in serum, was calculated as the percent of total cholesterol as determined by FPLC multiplied by the total serum cholesterol concentration.
Test compounds were administered at a dose of 100 mg/kg. Each test substance is administered to a group of six rats. The duration of treatment was eight days.

| SMILES | melting point [°C] | change in vivo at 100 mg/kg [1] [%] |
| --- | --- | --- |
| CCN1C(=O)C(=O)N(c2ccc(Cl)cc2C)C1=S [Example 8, 1-(4-Chloro-2-methylphenyl)-3-ethyl-2-thioxo-4,5-imidazolidinedione] | 161 to 162 | 103 |
| CCOC(=O)CON1C(=O)C(=O)N(c2ccccc2SC)C1=S [Example 2, Ethyl 2-({3-[2-(methylsulfanyl)phenyl]-4,5-dioxo-2-thioxo-1-imidazolidinyl}oxy)acetate] | 112 to 114 | 196 |
| CCN1C(=O)C(=O)N(c2ccc(F)cc2)C1=S [Example 7, 1-Ethyl-3-(4-fluorophenyl)-2-thioxo-4,5-imidazolidinedione] | 172 to 174 | 199 |
| Cc1cccc(C)c1N1C(=O)C(=O)N(C)C1=S [Example 6, 1-(2,6-Dimethylphenyl)-3-methyl-2-thioxo-4,5-imidazolidinedione] | 144 to 146 | 227 |
| C#CCN1C(=O)C(=O)N(c2cc(Cl)ccc2C)C1=S [Example 9, 1-(5-Chloro-2-methylphenyl)-3-(2-propynyl)-2-thioxo-4,5-imidazolidinedione] | 162 to 164 | 114 |
| CCN1C(=O)C(=O)N(c2cc(Cl)ccc2C)C1=S [Example 3, 1-(5-Chloro-2-methylphenyl)-3-ethyl-2-thioxo-4,5-imidazolidinedione] | 173 to 174 | 19 |
| Cc1ccc(Cl)cc1N1C(=O)C(=O)N(C)C1=S [Example 5, 1-(5-Chloro-2-methylphenyl)-3-methyl-2-thioxo-4,5-imidazolidinedione] | 171 to 173 | 186 |
| CCN1C(=O)C(=O)N(c2cc(F)ccc2C)C1=S [Example 4, 1-Ethyl-3-(5-fluoro-2-methylphenyl)-2-thioxo-4,5-imidazolidinedione] | 152 to 153 | 203 |
| CCOC(=O)CON1C(=O)C(=O)N(c2cc(Cl)ccc2C)C1=S [Example 1, Ethyl 2-{[3-(5-chloro-2-methylphenyl)-4,5-dioxo-2-thioxo-1-imidazolidinyl]oxy}acetate] | 157 to 159 | 242 |
| CCN1C(=O)C(=O)N(c2c(C)cccc2C)C1=S [Example 10, 1-(2,6-Dimethylphenyl)-3-ethyl-2-thioxo-4,5-imidazolidinedione] | 103 to 105 | 36 |
